The values below come from US12274264B2, “Piperonylic acid derivative and application thereof” (SHENYANG SINOCHEM AGROCHEMICALS R&D CO., LTD., priority 2019, dated 2025).

Like-named read-outs stand apart in the source and are kept apart here.

Test [1] deals with armyworm. Kind of test: Determination of activity against armyworm (corn leaf dip, mortality after 72 hours). The test is classed as in vivo. The conditions noted are these: foliar, 10 mg/L, third instar, read-out: mortality rates against armyworm. The procedure:
(§1) According to the solubility of test compounds, the compounds are dissolved with acetone or dimethyl sulfoxide, and then diluted with 0.1% Tween 80 solution to form a required concentration of 50 ml test liquid. The content of the acetone or the dimethyl sulfoxide in the total solution is not more than 10%.
The middle leaves of fresh corns were cut into small sections of 3 cm, and dipped into a solution of the required concentration of test compounds for 10 seconds. After dried in shade, the middle leaves were placed in a 9 cm diameter petri dish provided with filter paper. Fourteen regular healthy test insects (third instar) were put into the leaves. Four replicates were set for each treatment. The pure water treatment was set as control check. The treated discs were placed in a chamber of 24° C., 60%-70% relative humidity and day light. After 72 hours, the number of surviving insects was investigated, and the mortality rate was calculated.

For test [2], the system named is diamondback moth. Kind of test: Determination of activity against diamondback moth (cabbage leaf disc dip, mortality after 72 hours). In kind it is in vivo. Particulars: Plutella xylostella, foliar, 10 mg/L, second instar, read-out: mortality rates against diamondback moth. How it is done: as §1
The leaves of cabbage grown in greenhouse were selected, removed the surface waxy layers, punched into circular leaf discs with a diameter of 2 cm by using a puncher, and dipped into a solution of the required concentration of test compounds for 10 seconds. After dried in shade, the circular leaf discs were placed in a 9 cm diameter petri dish provided with filter paper. Ten regular healthy test insects (second instar) were put into the leaf discs. Four replicates were set for each treatment. The pure water treatment was set as control check. The treated discs were placed in a chamber of 24° C., 60%-70% relative humidity and day light. After 72 hours, the number of surviving insects was investigated, and the mortality rate was calculated.

Test [3] concerns western flower thrips nymphs. Description: Determination of activity against western flower thrips nymphs (sprayed kidney bean leaves, mortality after 72 hours). Particulars: Frankliniella occidentalis; for mortality at 10 µg/mL / mortality at 100 µg/mL: read-out: Mortality (%) against Western Flower Thrips Nymphs. The test is classed as in vivo. How it is done: as §1
Fresh kidney bean leaves cultured in the glasshouse were selected and uniformly sprayed with 1 ml of the test liquid by using a handheld Airbrush. The leaves were dried naturally and placed in a test tube. Fifteen tidy and healthy western flower thrips nymphs were put into the leaves. Three replicates were set for each treatment. The water treatment was set as control check. After the treatment, the treated tube were placed in a chamber of 24° C., 60%-70% relative humidity and day light. After 72 hours, the number of surviving insects was investigated, and the mortality was calculated.

For test [4], the system named is Tetranychus cinnabarinus adults. Kind of test: Determination of acaricidal activity (spray on bean plant leaves with adult spider mites, mortality after 72 hours). In kind it is in vivo. The conditions noted are these: read-out: Mortality (%) against Tetranychus Cinnabarinus Adult. The procedure: as §1
The adult spider mites were put into two true leaves of bean plants. After the number of mites was investigated, the solution of certain concentrations of test compounds was sprayed by using a handheld Airbrush. Three replicates were set for each treatment. Then the leaves were maintained in a standard observation room. After 72 hours, the number of surviving mites was investigated, and the mortality rate was calculated. Compounds I-41, KC3, KC4 and MC were selected for parallel determination of activity against Tetranychus cinnabarinus adults.

The test system of test [5] is Tribolium confusum adults. Description: Determination of Tribolium confusum adults (treated feeding bran, 72 h). The test is classed as in vivo. The procedure: as §1
The test liquid was prepared in the order from low dose to high dose according to the test design. Then, the liquid of different concentrations was added to feeding bran and uniformly stirred, and dried in the shade. Then, the resulting feeding bran was collected in a paper cup. Fifty Tribolium confusum adults with consistent size were put in the paper cup. Three replicates were set for each treatment. Control check was set. The treated test materials were put in an observation room under controlled conditions. After 72 h, the number of dead and surviving adults was investigated.

Test [6] has as its system Spodoptera litura. The conditions noted are these: concentration of 1 ppm; cited from earlier work.
Test [7] deals with Plutella xylostella. Particulars: concentration of 1 ppm; cited from earlier work.
In test [8] the test system is Plutella xylostella. Particulars: concentration of 200 ppm; cited from earlier work.
The subject of test [9] is Spodoptera littoralis. Particulars: concentration of 200 ppm; cited from earlier work.
The subject of test [10] is Tetranychus urticae koch. The conditions noted are these: concentration of 200 ppm; cited from earlier work.
Test [11] concerns trips tabaci. Particulars: concentration of 200 ppm; cited from earlier work.
[12] abbreviates: 72 h, read-out: Mortality (%) against Tribolium Confusum Adults.

Regarding `O=C(Nc1cccc(C(=O)Nc2c(Br)cc(C(F)(C(F)(F)F)C(F)(F)F)cc2OC(F)F)c1F)c1ccc2c(c1)OC(F)(F)O2` [Compound I-41], the mortality at 10 µg/mL in [1] was > 90%; in test [2], > 90%; in test [3] (10 mg/L, after 72 hours) it was 90%; in test [4] (10 mg/L, after 72 hours), 87%. The mortality at 100 µg/mL in test [3] (100 mg/L, after 72 hours) was found to be 95%; in test [4] (100 mg/L, after 72 hours) it was 100%. The mortality at 600 µg/mL in [3] (600 mg/L, after 72 hours, read-out: mortality rates against western flower thrips nymphs) was > 90%; in [4] (600 mg/L, after 72 hours) it was 100%; in test [5] (600 mg/L, after 72 h, read-out: mortality rates against Tribolium confusum adults), > 90%.

With `CN(C(=O)c1ccccc1)c1cccc(C(=O)Nc2c(Br)cc(C(F)(C(F)(F)F)C(F)(F)F)cc2C(F)(F)F)c1F` [KC3, Broflanilide], in test [3] (72 h), the mortality at 10 µg/mL was determined as 33% and the mortality at 100 µg/mL came to 60%. In addition, in [4] (72 h), the mortality at 10 µg/mL came out at 0%, the mortality at 100 µg/mL worked out at 0% and the mortality at 600 µg/mL amounted to 0%. Also, in [5] (setting [12]), the mortality at 5 µg/mL turned out to be 69% and the mortality at 20 µg/mL amounted to 80%. In addition, the “activities against Spodoptera litura” value in test [6] is “greater than or equal to 70%”. Further, the “activities against Plutella xylostella” value in test [7] is “greater than or equal to 70%”.

With `O=C(Nc1cccc(C(=O)Nc2c(Br)cc(C(F)(C(F)(F)F)C(F)(F)F)cc2OC(F)F)c1F)c1ccccc1` [KC4], the mortality at 10 µg/mL turned out to be 37% in test [3] (10 mg/L, after 72 hours) and 0% in test [4] (10 mg/L, after 72 hours). The mortality at 100 µg/mL is 52% in test [3] (100 mg/L, after 72 hours) and 0% in [4] (100 mg/L, after 72 hours). Further, the mortality at 600 µg/mL in test [4] (600 mg/L, after 72 hours) was 0%. Moreover, in [8], the “activities against Plutella xylostella” value was “greater than or equal to 80%”. In addition, the “activities against Spodoptera littoralis” value in test [9] is recorded as “greater than or equal to 80%”. The “activities against Tetranychus urticae koch” value in test [10] is “greater than or equal to 80%”. Further, the “activities against trips tabaci” value in test [11] was “greater than or equal to 80%”.
